Source: patent publication US9517215B2, “Dermal matrix and production method thereof having synergistic effects comprising microparticles which provides tissue repair” (T.C. EGE UNIVERSITESI, priority 2013, dated 2016)

System: human dermal fibroblast cells (Invitrogen C-013-5C)
Assay: Cell vitality of human dermal fibroblast cells after 24 h incubation
Type: cell-based
Method: The human dermal fibroblast cells, (Invitrogen C-013-5C) were cultured in humid conditions comprising 37±0.5° C. and 5% CO2 according to the instructions of the producer. […] Oxidative stress parameters such as total glutation, malondialdehyde, and superoxide dismutase and glutation peroxidase have been examined inside the cells that have been analyzed.

With `Oc1ccc(C=Cc2cc(O)cc(O)c2)cc1` [Resveratrol solution, resveratrol] the “cytotoxic potential (cell vitality)” value was “not to have cytotoxic potential” and the cell proliferation effect (concentrations corresponding to 50 μM resveratrol content) was “cell proliferation increasing effects”.
